Test results published in US9340577B2, “HLA binding motifs and peptides and their uses” (priority 1992, dated 2016).
No end group written: not given here.

How the values were obtained:
Test in all cases: biochemical
DR1 (DRB1*0101) = DR1 (DRB1*0101) (Homo sapiens, UniProt P01903+P01911, A100R/D57E/F55L/F60I/F76Y/I96L/L162R/M171V/P40L/Q125E/R42F/V115G/Y59C); assay type: binding
DR4w4 (DRB1*0401) = DR4w4 (DRB1*0401) (Homo sapiens, UniProt P01903+P01911, A100K/A169T/F76Y/I96L/K127E/L162R/M171V/N62H/P40V/Q125Y/R42H/S133A/S149N/S66Y/V115G/V209L/W38E); assay type: binding
DR7 (DRB1*0701) = DR7 (DRB1*0701) (Homo sapiens, UniProt P01903+P01911, A100R/A102G/A103Q/D57E/D86V/E43K/F76Y/K127E/L162R/M171V/P40G/Q125H/Q99D/R33Q/R42Y/R54Q/S133A/S66F/T210M/V115G/Y107V/Y59L/Y89S); assay type: binding
DRB1*0405 = DRB1*0405 (Homo sapiens, UniProt P01903+P01911, A100R/A169T/D86S/F76Y/I96L/K127E/L162R/M171V/N62H/P40V/Q125Y/R42H/S133A/S149N/S66Y/V115G/V209L/W38E); assay type: binding
DRB1*0802 = DRB1*0802 (Homo sapiens, UniProt P01903+P01911, A100R/A103L/A169T/F76Y/H45Y/I96F/K41T/L162R/M171V/P40S/Q125H/Q178H/Q39Y/Q99D/R218S/R42G/S66Y/V115G/W38E); assay type: binding
DRB1*0901 = DRB1*0901 (Homo sapiens, UniProt P01903+P01911, A100R/A103E/D57H/D86V/F55Y/F60I/F76Y/I96F/K127E/L162R/M171V/P40D/Q125H/Q99R/R33Q/R42F/S133A/S66N/T210M/V115G/W38K/Y107V/Y59G/Y89S); assay type: binding
DRB1*1501 = DRB1*1501 (Homo sapiens, UniProt P01903+P01911); assay type: binding
DRB4*0101 = DRB4*0101 (Homo sapiens, UniProt P01903+P13762, G164S); assay type: binding
DRB1*1101 = DRB1*1101 (Homo sapiens, UniProt P01903+P01911, A100R/A169T/A87E/I96F/K41T/L162R/M171V/P40S/Q125H/Q178H/Q39Y/Q99D/R42S/S66Y/T262R/V115G/W38E); details: Binding affinity DRB1 *1101
DRB5*0101 = DRB5*0101 (Homo sapiens, UniProt P01903+Q30154); details: Binding affinity DRB5 *0101
DRB1*1302 = DRB1*1302 (Homo sapiens, UniProt P01903+P01911, A100E/A169T/K41T/L162R/M171V/P40S/Q125H/Q178H/Q39Y/Q99D/R42S/S66N/T262R/V115G/W38E/Y61H); assay type: binding
Sequence of DRB1*1302 (P01903 26-254 limits assumed, other chains not shown): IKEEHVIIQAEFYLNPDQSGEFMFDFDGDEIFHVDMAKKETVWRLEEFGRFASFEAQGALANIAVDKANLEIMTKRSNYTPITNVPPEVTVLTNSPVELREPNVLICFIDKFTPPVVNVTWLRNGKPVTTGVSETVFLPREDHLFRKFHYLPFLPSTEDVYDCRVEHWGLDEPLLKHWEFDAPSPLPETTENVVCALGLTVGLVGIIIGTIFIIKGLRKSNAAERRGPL

Sequence of DRB1*1101 (P01903 26-254 limits assumed, other chains not shown): as above

For `CC[C@H](C)[C@H](NC(=O)[C@H](C)NC(=O)[C@H](CCCCN)NC(=O)[C@@H](N)Cc1c[nH]cn1)C(=O)N[C@@H](CCC(=O)O)C(=O)N[C@@H](CC(C)C)C(=O)N[C@@H](CCC(N)=O)C(=O)N[C@@H](CCSC)C(=O)N[C@@H](C)C(=O)N[C@@H](CC(C)C)C(=O)N[C@@H](CCC(N)=O)C(=O)NCC(=O)N[C@@H](CC(C)C)C(=O)N[C@@H](C)C(=O)N[C@@H](CCC(N)=O)C(=O)O` [Peptide 89.0160], the IC50 (DR1 (DRB1*0101)) was > 20 µM, the IC50 (DR4w4 (DRB1*0401)) was 0.35 µM and the IC50 (DR7 (DRB1*0701)) was > 20 µM. For the same molecule, the IC50 (DRB1*0405) was > 20 µM, the IC50 (DRB1*0802) was > 20 µM and the IC50 (DRB1*0901) was > 20 µM. For the same molecule, the IC50 (DRB1*1501) was 1.28 µM, the IC50 (DRB4*0101) was 3.47 µM and the IC50 (DRB1*1101) was 16.8 µM. For the same molecule, the IC50 (DRB5*0101) was > 20 µM.

For `CC(C)[C@H](NC(=O)[C@H](CO)NC(=O)[C@@H](NC(=O)[C@@H](N)[C@@H](C)O)C(C)C)C(=O)NCC(=O)N[C@H](C(=O)N[C@@H](C)C(=O)N[C@@H](CCCCN)C(=O)N[C@H](C(=O)N[C@@H](Cc1ccc(O)cc1)C(=O)NCC(=O)N[C@@H](CCC(N)=O)C(=O)N[C@H](C(=O)N[C@@H](CO)C(=O)N[C@@H](C)C(=O)O)[C@@H](C)O)[C@@H](C)O)[C@@H](C)O` [Peptide 89.0163], the IC50 (DR1 (DRB1*0101)) was > 20 µM, the IC50 (DR7 (DRB1*0701)) was > 20 µM and the IC50 (DRB1*0405) was 2.33 µM. The IC50 (DRB1*0802) was > 20 µM, the IC50 (DRB1*0901) was > 20 µM and the IC50 (DRB1*1302) was > 20 µM. The IC50 (DRB1*1501) was 8.71 µM, the IC50 (DRB4*0101) was 0.229 µM and the IC50 (DRB1*1101) was > 20 µM. For the same molecule, the IC50 (DRB5*0101) was > 20 µM.

For CWTYFDNYMRNALDG [Peptide 89.0090], the IC50 (DR4w4 (DRB1*0401)) was 3.59 µM, the IC50 (DR7 (DRB1*0701)) was 2.91 µM and the IC50 (DRB1*0405) was 4.88 µM. The IC50 (DRB1*0802) was 3.69 µM, the IC50 (DRB1*0901) was > 20 µM and the IC50 (DRB1*1302) was > 20 µM. The IC50 (DRB4*0101) was 2.04 µM and the IC50 (DRB1*1101) was > 20 µM.

In the case of DSDIAYYYAQLADSN [Peptide 89.0071], the IC50 (DR1 (DRB1*0101)) is reported as 0.198 µM, the IC50 (DR7 (DRB1*0701)) is reported as 4.13 µM and the IC50 (DRB1*0405) is reported as 6.03 µM. For the same molecule, the IC50 (DRB1*0901) was 2.34 µM, the IC50 (DRB1*1302) was > 20 µM and the IC50 (DRB1*1501) was 0.013 µM. For the same molecule, the IC50 (DRB4*0101) was 0.978 µM, the IC50 (DRB1*1101) was 9.14 µM and the IC50 (DRB5*0101) was > 20 µM.

For DWCIIGMGVTPSVAE [Peptide 89.0096], the IC50 (DR1 (DRB1*0101)) was > 20 µM, the IC50 (DR7 (DRB1*0701)) was 2.64 µM and the IC50 (DRB1*0405) was > 20 µM. For the same molecule, the IC50 (DRB1*0802) was > 20 µM, the IC50 (DRB1*0901) was > 20 µM and the IC50 (DRB1*1302) was 4.34 µM. For the same molecule, the IC50 (DRB1*1501) was 8.31 µM, the IC50 (DRB4*0101) was 0.19 µM and the IC50 (DRB1*1101) was > 20 µM. For the same molecule, the IC50 (DRB5*0101) was > 20 µM.

With ELQMALETLSKSQYS [Peptide 89.0183] the IC50 (DR1 (DRB1*0101)) was 0.08 µM, the IC50 (DR4w4 (DRB1*0401)) was 0.434 µM and the IC50 (DR7 (DRB1*0701)) was 3.14 µM. It also gave an IC50 (DRB1*0405) of 3.29 µM, an IC50 (DRB1*0901) of 0.204 µM and an IC50 (DRB1*1302) of 4.3 µM. The IC50 (DRB4*0101) was > 20 µM and the IC50 (DRB5*0101) was 10.6 µM.

With ETHMVIEPPKLRSAT [Peptide 89.0103] the IC50 (DR4w4 (DRB1*0401)) was 0.778 µM, the IC50 (DR7 (DRB1*0701)) was > 20 µM and the IC50 (DRB1*0405) was 3.54 µM. For the same molecule, the IC50 (DRB1*0802) was 12.2 µM, the IC50 (DRB1*0901) was > 20 µM and the IC50 (DRB1*1302) was 1.46 µM. For the same molecule, the IC50 (DRB4*0101) was 3.91 µM, the IC50 (DRB1*1101) was 3.26 µM and the IC50 (DRB5*0101) was 2.87 µM.

FIHFIQGAVISFVNS [Peptide 89.0036] gave an IC50 (DRB1*0405) of 1.22 µM, an IC50 (DRB1*0802) of 3.42 µM and an IC50 (DRB1*0901) of 0.137 µM. For the same molecule, the IC50 (DRB1*1302) was 0.097 µM, the IC50 (DRB1*1501) was 0.677 µM and the IC50 (DRB4*0101) was 0.13 µM. It also gave an IC50 (DRB1*1101) of 4.33 µM and an IC50 (DRB5*0101) of 6.02 µM.

In the case of FLSYFKLFLQGTPKH [Peptide 89.0132], the IC50 (DR1 (DRB1*0101)) is reported as > 20 µM, the IC50 (DR7 (DRB1*0701)) is reported as > 20 µM and the IC50 (DRB1*0405) is reported as 7.81 µM. For the same molecule, the IC50 (DRB1*0802) was > 20 µM, the IC50 (DRB1*1302) was 1.3 µM and the IC50 (DRB1*1501) was > 20 µM. The IC50 (DRB4*0101) was 0.0087 µM, the IC50 (DRB1*1101) was > 20 µM and the IC50 (DRB5*0101) was > 20 µM.

For GQVIVFPESVFSSDE [Peptide 89.0173], the IC50 (DR7 (DRB1*0701)) was > 20 µM, the IC50 (DRB1*0405) was > 20 µM and the IC50 (DRB1*0802) was 2.12 µM. The IC50 (DRB1*0901) was > 20 µM, the IC50 (DRB1*1302) was > 20 µM and the IC50 (DRB1*1501) was > 20 µM. The IC50 (DRB4*0101) was > 20 µM, the IC50 (DRB1*1101) was > 20 µM and the IC50 (DRB5*0101) was > 20 µM.

HQVVPALSVSKAKAL [Peptide 89.0169] was tested, and the IC50 (DR1 (DRB1*0101)) was 0.099 µM, the IC50 (DR4w4 (DRB1*0401)) was 0.398 µM and the IC50 (DR7 (DRB1*0701)) was 4.73 µM. For the same molecule, the IC50 (DRB1*0405) was 15.5 µM, the IC50 (DRB1*0802) was > 20 µM and the IC50 (DRB1*0901) was 1.62 µM. For the same molecule, the IC50 (DRB1*1501) was > 20 µM, the IC50 (DRB4*0101) was > 20 µM and the IC50 (DRB1*1101) was > 20 µM. The IC50 (DRB5*0101) was > 20 µM.

Work on HQVVPPMAVSKAKAC [Peptide 90.0012] yielded an IC50 (DR1 (DRB1*0101)) of 0.68 µM, an IC50 (DR4w4 (DRB1*0401)) of 2.34 µM and an IC50 (DR7 (DRB1*0701)) of 0.434 µM. The IC50 (DRB1*0405) was > 20 µM, the IC50 (DRB1*1302) was 0.908 µM and the IC50 (DRB1*1501) was > 20 µM. The IC50 (DRB4*0101) was 0.645 µM, the IC50 (DRB1*1101) was 7.01 µM and the IC50 (DRB5*0101) was 5.79 µM.
